Assay results reported in US9309301B2 (priority 2011, dated 2016).
Like-named read-outs stand apart in the source and are kept apart here. One block for each compound: values may come before it. Square brackets hold non-standard residues; d marks the D form. Primed or numbered codes have the meaning given here. Ends that are not written are not given here. 40K‑TE PEG(4) = 40 kDa PEG bound to Cys thiol via thioether (from iodoacetyl-PEG); Aib = CC(C)(N)C(=O)O

Experiments:
Format in all cases: cell-based
GIP receptor = biological target: T1, GIP receptor (Homo sapiens, UniProt P48546); test: in vitro agonist activity at the GIP receptor (cAMP induction, luciferase reporter, HEK293 cells); conditions: CRE-luciferase reporter
T1 construct: expressed in transfected cells; host or cells: HEK293
T1 sequence (P48546 22-466): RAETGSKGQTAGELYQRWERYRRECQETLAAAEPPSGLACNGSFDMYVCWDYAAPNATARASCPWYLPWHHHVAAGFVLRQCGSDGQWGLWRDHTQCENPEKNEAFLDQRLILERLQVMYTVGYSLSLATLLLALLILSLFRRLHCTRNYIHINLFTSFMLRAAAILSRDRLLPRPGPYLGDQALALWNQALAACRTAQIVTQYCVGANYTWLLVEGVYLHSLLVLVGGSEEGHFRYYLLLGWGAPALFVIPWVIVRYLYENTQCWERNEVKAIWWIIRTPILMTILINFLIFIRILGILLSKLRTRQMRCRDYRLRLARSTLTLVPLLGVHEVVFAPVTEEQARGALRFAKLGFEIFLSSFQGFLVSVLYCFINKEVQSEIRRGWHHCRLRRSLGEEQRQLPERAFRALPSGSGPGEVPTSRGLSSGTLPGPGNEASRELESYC
Method: It is understood that a lower EC50 indicates higher activity or potency at the receptor. […] The ability of each peptide to induce cAMP was measured in a firefly luciferase-based reporter assay. […] At the end of the incubation, 100 μL of LucLite luminescence substrate reagent (Perkin Elmer, Wellesley, Mass.) were added to each well. […] In some instances, the in vitro agonist activity at the GIP receptor was also tested.

GLP-1 receptor = biological target: T2, GLP-1 receptor (Homo sapiens, UniProt P43220); test: cAMP induction, firefly luciferase reporter assay in HEK293 cells co-transfected with GLP-1 receptor
T2 construct: expressed in transfected cells; host or cells: HEK293
T2 sequence (P43220 24-463): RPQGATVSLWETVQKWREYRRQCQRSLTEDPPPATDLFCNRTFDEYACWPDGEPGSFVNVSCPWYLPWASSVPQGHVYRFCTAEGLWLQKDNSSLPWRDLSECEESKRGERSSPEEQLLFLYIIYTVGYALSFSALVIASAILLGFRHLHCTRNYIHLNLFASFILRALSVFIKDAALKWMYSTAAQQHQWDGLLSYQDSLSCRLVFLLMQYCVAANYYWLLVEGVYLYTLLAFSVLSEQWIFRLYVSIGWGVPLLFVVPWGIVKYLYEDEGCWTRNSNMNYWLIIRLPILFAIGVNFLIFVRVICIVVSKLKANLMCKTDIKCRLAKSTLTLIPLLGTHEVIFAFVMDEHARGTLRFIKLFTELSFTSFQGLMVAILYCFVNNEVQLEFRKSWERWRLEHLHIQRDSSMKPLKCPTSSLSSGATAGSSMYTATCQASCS
Method: (§1) The ability of each peptide to induce cAMP was measured in a firefly luciferase-based reporter assay. […] At the end of the incubation, 100 μL of LucLite luminescence substrate reagent (Perkin Elmer, Wellesley, Mass.) were added to each well. […] In some instances, the in vitro agonist activity at the GIP receptor was also tested.

glucagon receptor = biological target: T3, glucagon receptor (Homo sapiens, UniProt P47871); test: cAMP induction, firefly luciferase reporter assay in HEK293 cells co-transfected with glucagon receptor
T3 construct: expressed in transfected cells; host or cells: HEK293
T3 sequence (P47871 26-477, species assumed): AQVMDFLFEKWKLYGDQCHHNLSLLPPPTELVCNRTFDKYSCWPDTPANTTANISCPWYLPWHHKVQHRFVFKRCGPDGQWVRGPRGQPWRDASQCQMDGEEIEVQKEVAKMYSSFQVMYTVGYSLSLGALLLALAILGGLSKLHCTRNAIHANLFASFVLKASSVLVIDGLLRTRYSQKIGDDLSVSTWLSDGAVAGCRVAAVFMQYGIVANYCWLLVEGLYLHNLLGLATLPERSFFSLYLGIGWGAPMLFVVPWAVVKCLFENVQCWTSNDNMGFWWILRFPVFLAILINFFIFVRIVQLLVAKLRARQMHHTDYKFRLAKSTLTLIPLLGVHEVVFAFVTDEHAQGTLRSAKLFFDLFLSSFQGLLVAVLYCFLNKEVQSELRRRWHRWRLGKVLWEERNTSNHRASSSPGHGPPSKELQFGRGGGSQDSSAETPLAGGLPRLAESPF
Method: as §1

[1] = read-out: EC50 (nM) at GLP-1 receptor, CRE-luciferase reporter, 5 hours incubation
[2] = read-out: EC50 (nM) at glucagon receptor, CRE-luciferase reporter, 5 hours incubation
[3] = CRE-luciferase reporter, 5 hours incubation

EC50 (nM) at GIP receptor (GIP receptor): no activity
Compound: 52 (H[Aib]QGTFTSDYSKYLDEK[Aib]AKEFVC(PEG 40 kDa)WLLDT-NH2) [compound 52]

EC50 (nM) at GIP receptor (GIP receptor): no activity
Compound: 38 (H[Aib]QGTFTSDYSKYLD[Aib]KRA[Aib]EFVC(PEG 40 kDa)WLLDT-NH2) [compound 38]

EC50 (nM) at GIP receptor (GIP receptor): no activity
Compound: 13 (H[Aib]QGTFTSDYSKYLDEKRA[Aib]EFVC(PEG 40 kDa)WLLDT-NH2) [compound 13]

EC50 (nM) at GIP receptor (GIP receptor): no activity
Compound: 41 (H[Aib]QGTFTSDYSKYLDEKRA[Aib]EFVC(PEG 40 kDa)WLL[Aib]T-NH2) [compound 41]

EC50 (GLP-1 receptor; [1]): 0.039 nM
EC50 (glucagon receptor; [2]): 0.026 nM
Compound: CC(C)C[C@H](NC(=O)[C@H](Cc1ccc(O)cc1)NC(=O)[C@H](CCCCN)NC(=O)[C@H](CO)NC(=O)[C@H](CCCCNC(=O)CC[C@H](NC(=O)CC12CC3CC(CC(C3)C1)C2)C(=O)O)NC(=O)[C@H](CC(=O)O)NC(=O)[C@H](CO)NC(=O)[C@@H](NC(=O)[C@H](Cc1ccccc1)NC(=O)[C@@H](NC(=O)CNC(=O)[C@H](CCC(N)=O)NC(=O)[C@@H](CO)NC(=O)[C@@H](N)Cc1c[nH]cn1)[C@@H](C)O)[C@@H](C)O)C(=O)N[C@@H](CC(=O)O)C(=O)N[C@@H](CCC(=O)O)C(=O)N[C@@H](CCCNC(=N)N)C(=O)N[C@@H](C)C(=O)N[C@@H](C)C(=O)N[C@@H](CCC(N)=O)C(=O)N[C@@H](CC(=O)O)C(=O)N[C@@H](Cc1ccccc1)C(=O)N[C@H](C(=O)N[C@@H](CCC(N)=O)C(=O)N[C@@H](Cc1c[nH]c2ccccc12)C(=O)N[C@@H](CC(C)C)C(=O)N[C@@H](CC(C)C)C(=O)N[C@@H](CC(=O)O)C(=O)N[C@H](C(N)=O)[C@@H](C)O)C(C)C [compound 48]

EC50 (nM) at GIP receptor (GIP receptor): no activity
Compound: 45 (H[Aib]QGTFTSDYSKYLDEKRA[Aib]EFVC(40K‑TE PEG(4))WLLDT-OH) [compound 45]

EC50 (GIP receptor): 2.82 nM
Compound: CCCCCCCCCCCCCCCC(=O)N[C@@H](CCC(=O)NCCCC[C@H](NC(=O)[C@H](CC(=O)O)NC(=O)[C@H](CO)NC(=O)[C@@H](NC(=O)[C@H](Cc1ccccc1)NC(=O)[C@@H](NC(=O)CNC(=O)[C@H](CCC(N)=O)NC(=O)[C@@H](CO)NC(=O)[C@@H](N)Cc1c[nH]cn1)[C@@H](C)O)[C@@H](C)O)C(=O)N[C@@H](CO)C(=O)N[C@@H](CCCCN)C(=O)N[C@@H](Cc1ccc(O)cc1)C(=O)N[C@@H](CC(C)C)C(=O)N[C@@H](CC(=O)O)C(=O)N[C@@H](CCC(=O)O)C(=O)N[C@@H](CCC(N)=O)C(=O)N[C@@H](C)C(=O)N[C@@H](C)C(=O)N[C@@H](CCCCN)C(=O)N[C@@H](CCC(=O)O)C(=O)N[C@@H](Cc1ccccc1)C(=O)N[C@H](C(=O)N[C@@H](CS)C(=O)N[C@@H](Cc1c[nH]c2ccccc12)C(=O)N[C@@H](CC(C)C)C(=O)N[C@@H](CC(C)C)C(=O)N[C@@H](CC(=O)O)C(=O)N[C@H](C(N)=O)[C@@H](C)O)[C@@H](C)CC)C(=O)O [compound 64]

EC50 (GIP receptor): 47.1 nM
Compound: CCCCCCCCCCCCCCCC(=O)N[C@@H](CCC(=O)NCCCC[C@H](NC(=O)[C@H](CC(=O)O)NC(=O)[C@H](CO)NC(=O)[C@@H](NC(=O)[C@H](Cc1ccccc1)NC(=O)[C@@H](NC(=O)CNC(=O)[C@H](CCC(N)=O)NC(=O)[C@@H](CO)NC(=O)[C@@H](N)Cc1c[nH]cn1)[C@@H](C)O)[C@@H](C)O)C(=O)N[C@@H](CO)C(=O)N[C@@H](CCCCN)C(=O)N[C@@H](Cc1ccc(O)cc1)C(=O)N[C@@H](CC(C)C)C(=O)N[C@@H](CC(=O)O)C(=O)N[C@@H](CCC(=O)O)C(=O)N[C@@H](CCC(N)=O)C(=O)N[C@@H](C)C(=O)N[C@@H](C)C(=O)N[C@@H](CCCCN)C(=O)N[C@@H](CCC(=O)O)C(=O)N[C@@H](Cc1ccccc1)C(=O)N[C@H](C(=O)N[C@@H](CS)C(=O)N[C@@H](Cc1c[nH]c2ccccc12)C(=O)N[C@@H](CC(C)C)C(=O)N[C@@H](CC(C)C)C(=O)N[C@@H](CC(=O)O)C(=O)N[C@H](C(=O)N[C@@H](CCC(=O)O)C(N)=O)[C@@H](C)O)[C@@H](C)CC)C(=O)O [compound 65]

Compound: 51 (H[Aib]QGTFTSDYSKYLDEKRA[Aib]EFVC(40K‑TE PEG(4))WLL[Aib]GGPSSGAPPPS-NH2) [compound 51]
EC50 (nM) at GIP receptor (GIP receptor): no activity

Compound: CC(C)C[C@H](NC(=O)[C@H](CC(C)C)NC(=O)[C@H](Cc1c[nH]c2ccccc12)NC(=O)[C@H](CCC(N)=O)NC(=O)[C@@H](NC(=O)[C@H](Cc1ccccc1)NC(=O)[C@H](CC(=O)O)NC(=O)[C@H](CCC(N)=O)NC(=O)[C@H](C)NC(=O)[C@H](C)NC(=O)[C@H](CCCNC(=N)N)NC(=O)[C@H](CCC(=O)O)NC(=O)[C@H](CC(=O)O)NC(=O)[C@H](CC(C)C)NC(=O)[C@H](Cc1ccc(O)cc1)NC(=O)[C@H](CCCCN)NC(=O)[C@H](CO)NC(=O)[C@H](CCCCNC(=O)CCC(=O)c1ccccc1)NC(=O)[C@H](CC(=O)O)NC(=O)[C@H](CO)NC(=O)[C@@H](NC(=O)[C@H](Cc1ccccc1)NC(=O)[C@@H](NC(=O)CNC(=O)[C@H](CCC(N)=O)NC(=O)[C@@H](CO)NC(=O)[C@@H](N)Cc1c[nH]cn1)[C@@H](C)O)[C@@H](C)O)C(C)C)C(=O)N[C@@H](CC(=O)O)C(=O)NCC(=O)NCC(=O)N1CCC[C@H]1C(=O)N[C@@H](CO)C(=O)N[C@@H](CO)C(=O)NCC(=O)N[C@@H](C)C(=O)N1CCC[C@H]1C(=O)N1CCC[C@H]1C(=O)N1CCC[C@H]1C(=O)N[C@@H](CO)C(N)=O [compound 49]
EC50 (GLP-1 receptor; [3]): 0.01 nM
EC50 (glucagon receptor; [3]): 0.063 nM

Compound: 47 (H[Aib]QGTFTSDYSKYLDEKRA[Aib]EFVC(PEG 40 kDa)WLLDGGPSSGAPPPS-NH2) [compound 47]
EC50 (nM) at GIP receptor (GIP receptor): no activity

Compound: 46 (H[Aib]QGTFTSDYSKYLD[Aib]KRA[Aib]EFVC(PEG 40 kDa)WLLDGGPSSGAPPPS-NH2) [compound 46]
EC50 (nM) at GIP receptor (GIP receptor): no activity

EC50 (GIP receptor): 0.812 nM
EC50 (GLP-1 receptor; [1]): 0.002 nM
EC50 (glucagon receptor; [2]): 0.004 nM
Compound: CCCCCCCCCCCCCCCC(=O)N[C@@H](CCC(=O)NCCCC[C@H](NC(=O)[C@H](CC(=O)O)NC(=O)[C@H](CO)NC(=O)[C@@H](NC(=O)[C@H](Cc1ccccc1)NC(=O)[C@@H](NC(=O)CNC(=O)[C@H](CCC(N)=O)NC(=O)[C@@H](CO)NC(=O)[C@@H](N)Cc1c[nH]cn1)[C@@H](C)O)[C@@H](C)O)C(=O)N[C@@H](CO)C(=O)N[C@@H](CCCCN)C(=O)N[C@@H](Cc1ccc(O)cc1)C(=O)N[C@@H](CC(C)C)C(=O)N[C@@H](CC(=O)O)C(=O)N[C@@H](CCC(=O)O)C(=O)N[C@@H](CCCNC(=N)N)C(=O)N[C@@H](C)C(=O)N[C@@H](C)C(=O)N[C@@H](CCC(N)=O)C(=O)N[C@@H](CC(=O)O)C(=O)N[C@@H](Cc1ccccc1)C(=O)N[C@H](C(=O)N[C@@H](CCC(N)=O)C(=O)N[C@@H](Cc1c[nH]c2ccccc12)C(=O)N[C@@H](CC(C)C)C(=O)N[C@@H](CC(C)C)C(=O)N[C@@H](CC(=O)O)C(=O)NCC(=O)N[C@@H](CCCNC(=N)N)C(=O)NCC(N)=O)C(C)C)C(=O)O [compound 19]
